These results are taken from patent publication US4450269A, “Mono-5-substituted-3-chloro-4H-1,2,6-thiadiazin-4-one antifungal agents” (FMC Corporation, priority 1980, dated 1984).

Molecules are shown by their SMILES.

In general, inhibition refers to the share of the control response that was lost under treatment.

Experiment [1] has as its system Cladosporium cucumerinum. The experiment in a line: Mycelial growth test. Format: cell-based. To be noted: CC; for inhibition at 5 ppm / inhibition at 10 ppm / inhibition at 20 ppm / inhibition at 40 ppm: Cladosporium cucumerinum, read-out: Percent Fungus Growth Inhibition; for inhibition at 5 ppm / inhibition at 10 ppm / inhibition at 40 ppm: 72 h; for inhibition at 20 ppm: CC20, 72 h. An excerpt:
|CC = Cladosporium cucumerinum

Experiment [2] relates to Erysiphe polygoni. The experiment in a line: whole plant or invertebrate. The note with it: foliar, 24 h, read-out: Percent Disease Control, curative, bean powdery mildew.

Consider `Nc1ccc(Oc2nsnc(Cl)c2=O)cc1` [Compound 26, 5-(4-aminophenoxy)-3-chloro-4H--1,2,6-thiadiazin-4-one], for which, in experiment [1] (40 ppm, 72 hours), the “Percent Fungus Growth Inhibition” value is 77%. In experiment [1], the inhibition at 5 ppm was determined as 37%, the inhibition at 10 ppm came out at 49% and the inhibition at 20 ppm was determined as 49%. Besides, the pest or weed control at 150 ppm in experiment [2] is 0%.

For `CNC(=O)Nc1ccc(Oc2nsnc(Cl)c2=O)cc1` [Compound 28, 3-chloro-5-[4-(3-methylureido)-phenoxy]-4H--1,2,6-thiadiazin-4-one], in experiment [1], the inhibition at 5 ppm was determined as 14%, the inhibition at 10 ppm worked out at 26% and the inhibition at 20 ppm is 26%. Further, the inhibition at 40 ppm in experiment [1] (40 ppm) stood at 60%. For the same compound, in experiment [2], the pest or weed control at 150 ppm was found to be 50%.

Consider `O=C(Nc1ccccc1)Nc1ccc(Oc2nsnc(Cl)c2=O)cc1` [Compound 29, 3-chloro-5-[4-(3-phenylureido)-phenoxy]-4H--1,2,6-thiadiazin-4-one], for which, in experiment [1], the inhibition at 5 ppm was 14%, the inhibition at 10 ppm turned out to be 11% and the inhibition at 20 ppm came to 14%. Moreover, the inhibition at 40 ppm in experiment [1] (40 ppm) amounted to 31%. Further, the pest or weed control at 150 ppm in experiment [2] was found to be 0%.

Take `O=c1c(Cl)nsnc1Oc1c(Cl)cc(Cl)cc1Cl` [Compound 30, 3-chloro-5-(2,4,6-trichlorophenoxy)-4H--1,2,6-thiadiazin-4-one]: in experiment [1], the inhibition at 5 ppm came to 75%, the inhibition at 10 ppm worked out at 100% and the inhibition at 20 ppm worked out at 100%. Also, in experiment [1] (40 ppm), the inhibition at 40 ppm amounted to 100%. Besides, the pest or weed control at 150 ppm in experiment [2] was 100%.

In the case of `O=c1c(Cl)nsnc1Oc1c(Cl)c(Cl)c(Cl)c(Cl)c1Cl` [Compound 31, 3-chloro-5-(pentachlorophenoxy)-4H--1,2,6-thiadiazine-4-one], in experiment [1], the inhibition at 5 ppm was 54%, the inhibition at 10 ppm was 57% and the inhibition at 20 ppm was found to be 60%. In addition, the inhibition at 40 ppm in experiment [1] (40 ppm) was 69%. Moreover, in experiment [2], the pest or weed control at 150 ppm turned out to be 100%.

As for `O=c1c(Cl)nsnc1Oc1cccc2ccccc12` [Compound 32, 3-chloro-5(1-naphthoxy)-4H-1,2,6-thiadiazin-4-one], in experiment [1], the inhibition at 5 ppm was found to be 35%, the inhibition at 10 ppm came out at 46% and the inhibition at 20 ppm was 69%. In addition, the inhibition at 40 ppm in experiment [1] (40 ppm) is 100%. In experiment [2], the pest or weed control at 150 ppm stood at 90%.

Turning to `O=c1c(Cl)nsnc1Oc1ccccc1Br` [Compound 34, 3-chloro-5-(2-bromophenoxy)-4H-1,2,6,-thiadiazin-4-one], in experiment [1], the inhibition at 5 ppm was 6%, the inhibition at 10 ppm worked out at 28% and the inhibition at 20 ppm was determined as 61%. In addition, the inhibition at 40 ppm in experiment [1] (40 ppm) turned out to be 86%. Further, the pest or weed control at 150 ppm in experiment [2] was 95%.

In the case of `O=C(Nc1ccccc1)Oc1ccc(Oc2nsnc(Cl)c2=O)cc1` [Compound 37, 3-chloro-5-[4-(phenylaminocarbonyloxy)phenoxy]-4H-1,2,6,-thiadiazin-4-one], in experiment [1], the inhibition at 5 ppm is 23%, the inhibition at 10 ppm amounted to 29% and the inhibition at 20 ppm came out at 35%. Besides, the inhibition at 40 ppm in experiment [1] (40 ppm) was 52%. Further, the pest or weed control at 150 ppm in experiment [2] turned out to be 0%.

In the case of `O=C(OCc1ccccc1)Oc1ccc(Oc2nsnc(Cl)c2=O)cc1` [Compound 38, 3-chloro-5-[4-(phenylmethoxycarbonyloxy)phenoxyl]-4H-1,2,6-thiadiazin-4-one], in experiment [1], the inhibition at 5 ppm came to 0%, the inhibition at 10 ppm came out at 0% and the inhibition at 20 ppm is 0%. Also, in experiment [1] (40 ppm), the inhibition at 40 ppm turned out to be 26%. Moreover, the pest or weed control at 150 ppm in experiment [2] stood at 0%.

With `CSc1ccc(Oc2nsnc(Cl)c2=O)cc1` [Compound 39, 3-chloro-5-[(4-methylthio)phenoxy]-4H-1,2,6,-thiadiazin-4-one], in experiment [1], the inhibition at 5 ppm turned out to be 16%, the inhibition at 10 ppm was 16% and the inhibition at 20 ppm was found to be 23%. For the same compound, in experiment [1] (40 ppm), the inhibition at 40 ppm was found to be 32%. Further, the pest or weed control at 150 ppm in experiment [2] turned out to be 0%.

With `C[S+]([O-])c1ccc(Oc2nsnc(Cl)c2=O)cc1` (centres unmarked) [Compound 40, 3-chloro-5-[(4-methylsulfinyl)phenoxy]-4H-1,2,6,-thiadiazin-4-one], in experiment [1], the inhibition at 5 ppm amounted to 0%, the inhibition at 10 ppm is 48% and the inhibition at 20 ppm was determined as 32%. In addition, the inhibition at 40 ppm in experiment [1] (40 ppm) is 48%. Also, in experiment [2], the pest or weed control at 150 ppm is 0%.

For `CC(=O)Nc1cccc(Oc2nsnc(Cl)c2=O)c1` [Compound 42, 3-[(3-N--acetylamino)-phenoxy]-5-chloro-4H--1,2,6-thiadiazin-4-one], in experiment [1], the inhibition at 5 ppm came to 14%, the inhibition at 10 ppm turned out to be 22% and the inhibition at 20 ppm stood at 14%. Moreover, the inhibition at 40 ppm in experiment [1] (40 ppm) came out at 18%. The pest or weed control at 150 ppm in experiment [2] came out at 0%.

Turning to `CC(=O)Nc1ccccc1Oc1nsnc(Cl)c1=O` [Compound 43, 3-[(2-acetylamino)-phenoxy]-5-chloro-4H--1,2,6-thiadiazin-4-one], in experiment [1], the inhibition at 5 ppm amounted to 0%, the inhibition at 10 ppm was determined as 0% and the inhibition at 20 ppm was found to be 6%. Further, in experiment [1] (40 ppm), the inhibition at 40 ppm stood at 17%. Moreover, in experiment [2], the pest or weed control at 150 ppm was 0%.

For the compound `O=c1c(Cl)nsnc1Oc1cccc(C(F)(F)F)c1` [Compound 44, 3-chloro-5-[(3-trifluoromethyl)phenoxy]-4H--1,2,6-thiadiazin-4-one], in experiment [1], the inhibition at 5 ppm turned out to be 36%, the inhibition at 10 ppm was 56% and the inhibition at 20 ppm amounted to 92%. Moreover, in experiment [1] (40 ppm), the inhibition at 40 ppm was 100%. The pest or weed control at 150 ppm in experiment [2] was found to be 100%.

Take `O=C(O)Cc1ccccc1Oc1nsnc(Cl)c1=O` [Compound 45, 3-(2-carboxymethylphenoxy)-5-chloro-4H--1,2,6-thiadiazin-4-one]: in experiment [1], the inhibition at 5 ppm turned out to be 0%, the inhibition at 10 ppm was 0% and the inhibition at 20 ppm is 12%. In experiment [1] (40 ppm), the inhibition at 40 ppm turned out to be 0%. Moreover, the pest or weed control at 150 ppm in experiment [2] is 0%.

As to `N#CCc1ccc(Oc2nsnc(Cl)c2=O)cc1` [Compound 46, 3-chloro-5-[(4-cyanomethyl)-phenoxy]4H--1,2,6-thiadiazin-4-one], in experiment [1], the inhibition at 5 ppm was determined as 0%, the inhibition at 10 ppm was found to be 0% and the inhibition at 20 ppm worked out at 46%. For the same compound, the inhibition at 40 ppm in experiment [1] (40 ppm) worked out at 100%. Also, the pest or weed control at 150 ppm in experiment [2] came out at 0%.

In the case of `CC(=O)c1ccc(Oc2nsnc(Cl)c2=O)cc1` [Compound 47, 3-(4-acetylphenoxy)-5-chloro-4H--1,2,6-thiadiazin-4-one], in experiment [1], the inhibition at 5 ppm is 27%, the inhibition at 10 ppm turned out to be 38% and the inhibition at 20 ppm turned out to be 46%. Further, in experiment [1] (40 ppm), the inhibition at 40 ppm is 77%. For the same compound, in experiment [2], the pest or weed control at 150 ppm is 0%.

Turning to `CC(=O)c1cccc(Oc2nsnc(Cl)c2=O)c1` [Compound 48, 3-(3-acetylphenoxy)-5-chloro-4H--1,2,6-thiadiazin-4-one], in experiment [1], the inhibition at 5 ppm came out at 29%, the inhibition at 10 ppm was found to be 33% and the inhibition at 20 ppm turned out to be 50%. In experiment [1] (40 ppm), the inhibition at 40 ppm stood at 100%. Moreover, in experiment [2], the pest or weed control at 150 ppm stood at 0%.

Consider `CC(=O)c1ccccc1Oc1nsnc(Cl)c1=O` [Compound 49, 3-(2-acetylphenoxy)-5-chloro-4H--1,2,6-thiadiazin-4-one], for which, in experiment [1], the inhibition at 5 ppm amounted to 3%, the inhibition at 10 ppm worked out at 17% and the inhibition at 20 ppm was 33%. Moreover, the inhibition at 40 ppm in experiment [1] (40 ppm) worked out at 64%. Also, the pest or weed control at 150 ppm in experiment [2] was 0%.

For the compound `O=C(O)c1ccc(Oc2nsnc(Cl)c2=O)cc1` [Compound 50, 3-(4-carboxyphenoxy)-5-chloro-4H--1,2,6-thiadiazin-4-one], in experiment [1], the inhibition at 5 ppm amounted to 58%, the inhibition at 10 ppm worked out at 54% and the inhibition at 20 ppm worked out at 73%. Also, the inhibition at 40 ppm in experiment [1] (40 ppm) was determined as 100%. Moreover, in experiment [2], the pest or weed control at 150 ppm was determined as 0%.

Take `COc1ccc(Cl)c(Oc2nsnc(Cl)c2=O)c1` [Compound 51, 3-chloro-5-[(2-chloro-5-methoxy)phenoxy]-4H--1,2,6-thiadiazin-4-one]: in experiment [1], the inhibition at 5 ppm worked out at 8%, the inhibition at 10 ppm came to 26% and the inhibition at 20 ppm is 85%. Moreover, the inhibition at 40 ppm in experiment [1] (40 ppm) stood at 100%. Besides, the pest or weed control at 150 ppm in experiment [2] amounted to 0%.

Take `COc1cc(Cl)cc(Oc2nsnc(Cl)c2=O)c1` [Compound 52, 3-chloro-5-[(3-chloro-5-methoxy)phenoxy]-4H--1,2,6-thiadiazin-4-one]: in experiment [1], the inhibition at 5 ppm was determined as 15%, the inhibition at 10 ppm is 46% and the inhibition at 20 ppm worked out at 88%. The inhibition at 40 ppm in experiment [1] (40 ppm) was 77%. Also, the pest or weed control at 150 ppm in experiment [2] stood at 75%.

On to `O=c1c(Cl)nsnc1Oc1ccc([N+](=O)[O-])cc1Cl` [Compound 53, 3-chloro-5-(2-chloro-4-nitrophenoxy)-4H--1,2,6-thiadiazin-4-one], for which, in experiment [1], the inhibition at 5 ppm is 45%, the inhibition at 10 ppm was 61% and the inhibition at 20 ppm is 71%. Also, the inhibition at 40 ppm in experiment [1] (40 ppm) came to 65%. Further, the pest or weed control at 150 ppm in experiment [2] worked out at 0%.

Turning to `Cc1cc(Oc2nsnc(Cl)c2=O)ccc1Cl` [Compound 54, 3-chloro-5-(4-chloro-3-methylphenoxy)-4H--1,2,6-thiadiazin-4-one], in experiment [1], the inhibition at 5 ppm turned out to be 14%, the inhibition at 10 ppm was 28% and the inhibition at 20 ppm came out at 33%. Besides, in experiment [1] (40 ppm), the inhibition at 40 ppm was 50%. Moreover, the pest or weed control at 150 ppm in experiment [2] was determined as 0%.

For `Cc1cc(Cl)ccc1Oc1nsnc(Cl)c1=O` [Compound 55, 3-chloro-5-(4-chloro-2-methylphenoxy)-4H--1,2,6-thiadiazin-4-one], in experiment [1], the inhibition at 5 ppm came to 0%, the inhibition at 10 ppm came to 11% and the inhibition at 20 ppm worked out at 22%. The inhibition at 40 ppm in experiment [1] (40 ppm) is 28%. In experiment [2], the pest or weed control at 150 ppm stood at 50%.

Consider `Cc1ccc(Cl)c(Oc2nsnc(Cl)c2=O)c1` [Compound 56, 3-chloro-5-[(2-chloro-5-methyl)phenoxy]-4H--1,2,6-thiadiazin-4-one], for which, in experiment [1], the inhibition at 5 ppm is 26%, the inhibition at 10 ppm worked out at 38% and the inhibition at 20 ppm stood at 100%. Further, the inhibition at 40 ppm in experiment [1] (40 ppm) amounted to 100%. The pest or weed control at 150 ppm in experiment [2] amounted to 0%.

As to `Cc1ccc(Oc2nsnc(Cl)c2=O)c(Br)c1` [Compound 57, 3-[(2-bromo-4-methyl)-phenoxy]-5-chloro-4H--1,2,6-thiadiazin-4-one], in experiment [1], the inhibition at 5 ppm amounted to 42%, the inhibition at 10 ppm was determined as 56% and the inhibition at 20 ppm worked out at 78%. In experiment [1] (40 ppm), the inhibition at 40 ppm was found to be 78%. In addition, the pest or weed control at 150 ppm in experiment [2] came out at 100%.

In the case of `Cc1cc(Cl)c(Oc2nsnc(Cl)c2=O)cc1C` [Compound 58, 3-chloro-5-[(2-chloro-4,5-dimethyl)phenoxy]-4H--1,2,6-thiadiazin-4-one], in experiment [1], the inhibition at 5 ppm is 44%, the inhibition at 10 ppm stood at 44% and the inhibition at 20 ppm is 42%. For the same compound, in experiment [1] (40 ppm), the inhibition at 40 ppm came to 61%. The pest or weed control at 150 ppm in experiment [2] worked out at 50%.
